Measurements published in PMC11215778 (Journal of Medicinal Chemistry, 2024).
Like-named read-outs stand apart in the source and are kept apart here.

Experiments:
[1] = Microsomal stability, rat liver microsomes; assay type: in vitro ADME; conditions: pH 7.4
Experimental: (§1) . Zero time points were prepared by adding ice-cold methanol to a mixture of the compound with cofactors prior to the addition of microsomes. […]. Intrinsic clearance (CLint) was calculated using the following formula: [drawing 1] where V = incubation volume per milligram of microsomal protein (μL/mg) and t1/2 = microsomal half-life.

D2 receptor = conditions: cited from earlier work
in vitro [2] = assay type: in vitro ADME; conditions: human, Caco-2
Experimental: A Transwell system consisting of two compartments separated by a monolayer of differentiated Caco-2 cells was employed for the intestinal permeability evaluation. Thanks to the ability of Caco-2 cells to become polarized, bidirectional transport (A–B and B–A) could be measured and the efflux ratio calculated.
The transepithelial bidirectional transport of tested compounds (5 μM, pH 7.4/7.4) across the Caco-2 monolayers was studied using the BD BioCoat HTS Caco-2 assay system (BD Biosciences, Bedford, MA) as described in detail elsewhere.[47] Aliquots were collected from the donor and acceptor compartment at the end of the transport period (3 h), the integrity of monolayers was verified using Lucifer Yellow dye, and the compounds were quantified using LC–MS/MS (Triple Quad 6500+, Sciex). The apparent permeability coefficient (Papp) was calculated from the following equation: Papp = (dQ/dt)/C0 × A, where dQ/dt is the rate of absorption of the drug across the cells, C0 is the donor compartment concentration at time zero, and A is the area of the monolayer. The efflux ratio was expressed as (Papp B–A)/(Papp A–B). Recovery (%) was determined as (total compound mass in donor and receiver compartments at the end of the incubation/initial compound mass in the donor compartment) × 100.

[3] = Microsomal stability, human liver microsomes; assay type: in vitro ADME; conditions: pooled liver microsomes, pH 7.4, read-out: Microsomal stability CLint, hum
Experimental: as §1

[4] = Plasma stability assay, human plasma; assay type: in vitro ADME; conditions: pooled plasma, read-out: Plasma stability % remaining at 6 h, hum
Experimental: […] The reactions were terminated by adding 4 vol of ice-cold methanol, and the samples were then mixed vigorously, frozen at −20 °C for 1 h, and left overnight at 8 °C. After that, the samples were centrifuged, and the supernatant was analyzed by means of LC–MS/MS Sciex 6500 triple quadrupole (Sciex, Framingham, MA, USA). Zero time points were prepared by adding ice-cold methanol to the compound prior to the addition of the plasma.

D3 receptor = conditions: cited from earlier work
[5] = Cytotoxicity assay (CellTiter-Glo) on normal human dermal fibroblasts; assay type: cell-based; conditions: normal human dermal fibroblasts (NHDF)
Experimental: The cytotoxicity of the compounds was evaluated in nontumor normal human dermal fibroblasts (NHDF) purchased from ATCC (PCS-201-012, Manassas, VA, USA). The cells were negatively tested for the presence of mycoplasma (cat. #: LT07-318 MycoAlert Mycoplasma Detection kit, Lonza). The cells were cultivated in DMEM high glucose 4.5 g/L medium (cat. #: R8758, Merck, Germany). The medium was supplemented with 10% fetal bovine serum (cat. #: F7524, Merck, Germany; inactivated at 56 °C for 30 min) and 1.0% of L-glutamine (cat. #: G7513, Merck, Germany) without antibiotics. Cells were seeded in 384-well format white micro plates (cat. #: 164610, Nunc, Thermo Fisher Scientific, USA) at a concentration of 60,000 cells per mL and left to rest overnight. Next day, 1 and 10 μM concentrations of the tested compounds were added in triplicates. The cells were cultivated at 37 °C and 5% CO2 for 72 h after which a luminescent cell viability assay (CellTiter-Glo 2.0, cat. #: Promega, Madison, USA) was added. The plate was left on a shaker (350 rpm) in the dark for 20 min at RT. Luminescence was measured by a Spark multimode reader from Tecan (Tecan Group Ltd., Switzerland). The signal of the compound-treated cells was related to the value of the untreated control, which was arbitrarily set to 100% viability.

[6] = Plasma stability assay, rat plasma; assay type: in vitro ADME
ADRA1A = molecular target: T1, ADRA1A (Homo sapiens, UniProt P35348); conditions: read-out: ADRA1A IC50; antagonist activity, receptor stimulated with EC80 of epinephrine, Chem-1 cells
T1 sequence (P35348 1-466): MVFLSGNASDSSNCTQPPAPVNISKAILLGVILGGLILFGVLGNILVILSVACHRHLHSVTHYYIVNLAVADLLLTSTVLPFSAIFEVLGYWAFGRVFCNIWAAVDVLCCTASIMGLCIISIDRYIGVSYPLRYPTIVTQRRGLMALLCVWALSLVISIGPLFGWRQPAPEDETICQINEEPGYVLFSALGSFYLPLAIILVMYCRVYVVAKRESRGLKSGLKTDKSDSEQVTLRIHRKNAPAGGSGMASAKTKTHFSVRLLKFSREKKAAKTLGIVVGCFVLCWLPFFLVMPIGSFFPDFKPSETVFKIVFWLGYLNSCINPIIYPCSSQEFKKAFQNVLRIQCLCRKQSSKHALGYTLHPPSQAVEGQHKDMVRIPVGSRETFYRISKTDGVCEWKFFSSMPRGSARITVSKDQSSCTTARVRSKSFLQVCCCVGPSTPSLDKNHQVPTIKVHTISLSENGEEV
Experimental: All prepared compounds were tested for their antagonistic activity using calcium flux assays on cells overexpressing the ADRA2A or ADRA1A adrenergic receptor as a primary screen (Table 2).
Chem-1 cells overexpressing ADRA2A or 1A adrenergic receptors were purchased from Merck Millipore (cat. #: HTS096RTA and HTS087RTA; Merck, Germany). The cells were cultured according to the manual. […] After 30 min of incubation with the assay buffer at 37 °C and 5% CO2, the cells were incubated at RT in a dark place for another 15 min. […] All compounds were added by an Agilent Bravo Automated Liquid Handling Platform (Agilent Technologies, USA). […] Before each kinetic measurement, the background fluorescence (F0) was measured, and the result was calculated as (Fmax – F0)/F0.

P-gp (human MDR1) = experiment: in vitro; conditions: dog, MDCK-MDR1
Experimental: (§2) Canine MDR1 Knockout, Human MDR1 Knockin MDCKII cells (Sigma-Aldrich) were employed to estimate CNS permeability of the compounds. Briefly, the cells were seeded at a density of 30,000 cells per 24-well plate insert of the Transwell sandwich (CellQART, SABEU GmbH&Co.KG, Germany). They were left to differentiate for 5 days with medium exchange every other day. […] The treated cells were then returned to the incubator for 2 h at 37 °C. After that, samples were collected from both apical inserts and basolateral wells and analyzed using LC–MS (Triple Quad 6500+, Sciex). LY permeation was used to check for the integrity of monolayer in each sample. […] Only wells displaying LY permeability <2% were qualified for compound transport quantification. Apparent permeability coefficients (Papp's), efflux ratios, and recoveries for the compounds were calculated as described in Section 4.2.8. The data represent means ± SD of two independent experiments performed in triplicate.

in vitro [7] = conditions: dog, MDCK-MDR1
Experimental: as §2

[8] = human liver microsomes 0.5 mg/mL, 10 μM compound
[9] = 10 uM, read-out: NHDF viability at 10 uM (supplement csv)
[10] = 10 μM, untreated control = 100%, read-out: NHDF Viability 10 μM

Experimental for MDCKII-MDR1 cells: as §2

Row | Structure (SMILES) | microsomal CLint at 10 µM ([1]; rat liver microsomes) [µL/min/mg] | microsomal CLint at 10 µM [3, 8] [µL/min/mg] | remaining at 6 h, 5 μM ([4]; human plasma, 5 μM, 37 °C) [%] | viability at 72 h, 1 µM [5] [%] | viability at 72 h, 10 µM [5, 9] [%] | viability at 72 h, 10 µM [5, 10] [%] | remaining at 6 h, 5 μM [6] [%] | IC50 (ADRA1A) [nM] | also measured
1 | COC(=O)[C@@H]1[C@H]2C[C@H]3c4[nH]c5ccccc5c4CCN3C[C@@H]2CC[C@@H]1O [Compound 1, Yohimbine, reference compound] | 2 | 7 ± 1 | 106 | 112 | 105 | 105 | 90 ± 2 | – | D2 receptor pKi (D2 receptor): 6.4; Papp B→A at 3 h, 5 µM (in vitro [2]; 5 μM, pH 7.4/7.4, 3 h, read-out: Caco-2 permeability Papp B–A): 23 ± 8 ×10⁻⁶ cm/s; affinity toward the D3 receptor (D3 receptor): negligible
2 | CCOC(=O)[C@@H]1[C@H]2C[C@H]3c4[nH]c5ccccc5c4CCN3C[C@@H]2CC[C@@H]1O [Compound 3a, 17-α-Hydroxyyohimban-16-α-carboxylic Acid Ethyl Ester] | 3 | 14 | 109 ± 1 | 111 | 108 | 108 | 52 | 3340 | –
3 | CC(C)OC(=O)[C@@H]1[C@H]2C[C@H]3c4[nH]c5ccccc5c4CCN3C[C@@H]2CC[C@@H]1O [Compound 3b, 17-α-Hydroxyyohimban-16-α-carboxylic Acid Isopropyl Ester] | 3 ± 1 | 17 ± 1 | 102 | 108 | 102 | 102 | 89 | 4160 | –
4 | CC(C)CCOC(=O)[C@@H]1[C@H]2C[C@H]3c4[nH]c5ccccc5c4CCN3C[C@@H]2CC[C@@H]1O [Compound 3c, 17-α-Hydroxyyohimban-16-α-carboxylic Acid (3-Methylbutyl-1-yl) Ester] | – | – | – | 117 | 114 | 114 | – | 2650 | –
5 | O=C(OC1CCCC1)[C@@H]1[C@H]2C[C@H]3c4[nH]c5ccccc5c4CCN3C[C@@H]2CC[C@@H]1O [Compound 3d, 17-α-Hydroxyyohimban-16-α-carboxylic Acid Cyclopentyl Ester] | – | – | – | 113 | 113 | 117 | – | 2640 | –
6 | CC(C)(C)OC(=O)[C@@H]1[C@H]2C[C@H]3c4[nH]c5ccccc5c4CCN3C[C@@H]2CC[C@@H]1O [Compound 3e, 17-α-Hydroxyyohimban-16-α-carboxylic Acid tert-Butyl Ester] | – | – | – | 123 | 117 | 113 | – | 10500 | –
7 | N[C@H]1C[C@H](OC(=O)[C@@H]2[C@H]3C[C@H]4c5[nH]c6ccccc6c5CCN4C[C@@H]3CC[C@@H]2O)C1 [Compound 4n, 17-α-Hydroxyyohimban-16-α-carboxylic Acid trans-3-Aminocyclobutyl Ester] | – | 2 ± 1 | 99 | 93 | 89 | 89 | 84 ± 2 | – | recovery at 3 h, 5 µM (in vitro [2]): 103%; Papp A→B at 3 h, 5 µM (in vitro [2]; 5 μM, pH 7.4/7.4, 3 h, read-out: Caco-2 permeability Papp A–B): 3 ± 1 ×10⁻⁶ cm/s; Papp A→B at 2 h, 10 µM (P-gp (human MDR1)): 0.9 ×10⁻⁶ cm/s; Papp B→A at 2 h, 10 µM (P-gp (human MDR1)): 3.5 ± 1.4 ×10⁻⁶ cm/s; recovery at 2 h, 10 µM (in vitro [7]): 100%; recovery (B–A) in MDCKII-MDR1 cells (MDCKII-MDR1 cells; B–A direction): 98%; P-gp transporter substrate (MDCKII-MDR1 cells; MDCKII-MDR1 cells): substrate for the P-gp transporter
8 | CN1CC[C@H](OC(=O)[C@@H]2[C@H]3C[C@H]4c5[nH]c6ccccc6c5CCN4C[C@@H]3CC[C@@H]2O)C1 [Compound 4p, 17-α-Hydroxyyohimban-16-α-carboxylic Acid (S)-N-Methylpyrrolidin-3-yl Ester] | 1 ± 1 | 10 | 109 ± 2 | 88 | 80 | 80 | 85 ± 2 | 3820 | –
9 | O=C(O[C@H]1CCOC1)[C@@H]1[C@H]2C[C@H]3c4[nH]c5ccccc5c4CCN3C[C@@H]2CC[C@@H]1O [Compound 4q, 17-α-Hydroxyyohimban-16-α-carboxylic Acid (S)-Tetrahydrofuran-3-yl Ester] | 5 ± 1 | 15 ± 1 | 118 | – | – | 112 | 102 ± 1 | 537 | –
10 | O=C(OC1COC1)[C@@H]1[C@H]2C[C@H]3c4[nH]c5ccccc5c4CCN3C[C@@H]2CC[C@@H]1O [Compound 4r, 17-α-Hydroxyyohimban-16-α-carboxylic Acid Oxetan-3-yl Ester] | – | – | – | – | 102 | – | 89 ± 1 | 1940 | microsomal CLint at 10 µM ([1]; rat, liver microsomes): 2 ± 1 µL/min/mg; microsomal CLint at 10 µM ([3]; human): 16 ± 1 µL/min/mg; remaining at 6 h, 5 μM ([4]; human): 94 ± 14%
